Experimental data taken from patent EP0170019A1, “Carbapenems having an ether group at position 4” (F. HOFFMANN-LA ROCHE & CO. Aktiengesellschaft, priority 1984, dated 1986).
Values after ≈ are worked out from the molar mass of the structure shown.

Key:
Assay in all cases: Minimal inhibitory concentration (MHK) on DST agar
Assay type in all cases: cell-based
Prot. mirabilis 29H = conditions: Proteus mirabilis
Description: (§1) Die minimalen Hemmkonzentrationen (MHK) der (4S,5S,6S)--6-[(R)-1-Hydroxyäthyl]-4-methoxy-7-oxo -1-azabicyclo-[3.2.0]hept-2-en-2-carbonsäure (Verbindung A), der (4R,5S,-6S)-6-[(R)-1-Hydroxyäthyl]-3-[[(S)-1-(1-iminoäthyl) -3-pyrrolidinyl]thio]-4-methoxy-7-oxo -1-azabicyclo[3.2.0]-hept-2-en -2-carbonsäure (Verbindung B), der (4R.5S,6S)-4--Aethoxy-6-[(R)-1-hydroxyäthyl]-3-[(S) -3-pyrrolidinyl- thio]-7-oxo-1-azabicyclo[3.2.0]hept-2-en -2-carbonsäure (Verbindung C) und der (4R,5S,6S)-4-Aethoxy-6-[(R)-1--hydroxyäthyl]-3-[[(S)-1 -(1-iminoäthyl)-3-pyrrolidinyl]-thio]-7-oxo-1 -azabicyclo[3.2.0]hept-2-en-2-carbonsäure (Verbindung D) gegen eine Reihe pathogener Mikroorganismen wurden auf DST-Agar (Diagnostic Sensitivity Test Agar) bestimmt. Die erhaltenen Resultate sind in der nachfolgenden Tabelle aufgeführt:
(§2) Die ß-Lactamase produzierenden Organismen sind mit einem ^* bezeichnet.

Pseudomonas aer. 1559E* = Pseudomonas aer. 1559E* (ß-Lactamase producing)
Description: as §1, §2

Prot. mirabilis 2117* = conditions: Proteus mirabilis, Prot. mirabilis 2117* (ß-Lactamase producing)
Description: as §1, §2

Staph. aureus 6538 = conditions: Staphylococcus aureus
Description: as §1, §2

Klebs. pneumoniae 418* = conditions: Klebsiella pneumoniae, Klebs. pneumoniae 418* (ß-Lactamase producing)
Description: as §1, §2

E. coli 1527 E* = conditions: Escherichia coli, E. coli 1527 E* (ß-Lactamase producing)
Description: as §1, §2

[1] = test system: Enterobacter cloacae 908*; conditions: Enterobacter cloacae 908* (ß-Lactamase producing)
Description: as §1, §2

E. coli TEM 1* = conditions: Escherichia coli, read-out: MHK
Description: as §1, §2

Pseudomonas aer. BA* = Pseudomonas aer. BA* (ß-Lactamase producing)
Description: as §1, §2

Prot. vulgaris 1028* = conditions: Proteus vulgaris, Prot. vulgaris 1028* (ß-Lactamase producing)
Description: as §1, §2

[2] = test system: Acinetobacter anitr. 5I-156; conditions: ANITR.5I156
Description: as §1, §2

[3] = test system: Serratia marcescens 803/15*; conditions: Serratia marcescens 803/15* (ß-Lactamase producing)
Description: as §1, §2

[4] = test system: Serratia marcescens 69438
Description: as §1, §2

Klebs. aerogenes 1082E* = conditions: Klebsiella aerogenes, Klebs. aerogenes 1082E* (ß-Lactamase producing)
Description: as §1, §2

E. coli 25922 = conditions: Escherichia coli
Description: as §1, §2

Strept. faecalis 6 = conditions: Enterococcus faecalis
Description: as §1, §2

E. coli 1346 = conditions: Escherichia coli
Description: as §1, §2

Staph. aureus 887* = conditions: Staphylococcus aureus, Staph. aureus 887* (ß-Lactamase producing)
Description: as §1, §2

Salmonella typh. BA = test system: Salmonella typh. BA
Description: as §1, §2

[5] = test system: Enterobacter cloacae 15M*; conditions: Enterobacter cloacae 15M* (ß-Lactamase producing)
Description: as §1, §2

## CO[C@H]1C=C(C(=O)O)N2C(=O)[C@H]([C@@H](C)O)[C@@H]12 [Verbindung A, (4S,5S,6S)--6-[(R)-1-Hydroxyäthyl]-4-methoxy-7-oxo-1-azabicyclo-[3.2.0]hept-2-en-2-carbonsäure]
Prot. mirabilis 29H
  MIC: 8 µg/mL (≈ 35.2 µM)
Pseudomonas aer. 1559E*
  MIC: > 32 µg/mL
Prot. mirabilis 2117*
  MIC: 4 µg/mL (≈ 17.6 µM)
Staph. aureus 6538
  MIC: 0.5 µg/mL (≈ 2.2 µM)
Klebs. pneumoniae 418*
  MIC: 0.5 µg/mL (≈ 2.2 µM)
E. coli 1527 E*
  MIC: 0.5 µg/mL (≈ 2.2 µM)
[1]
  MIC: 1 µg/mL (≈ 4.4 µM)
E. coli TEM 1*
  MIC: 1 µg/mL (≈ 4.4 µM)
Pseudomonas aer. BA*
  MIC: 32 µg/mL (≈ 141 µM)
Prot. vulgaris 1028*
  MIC: 4 µg/mL (≈ 17.6 µM)
[2]
  MIC: 2 µg/mL (≈ 8.8 µM)
[3]
  MIC: 2 µg/mL (≈ 8.8 µM)
[4]
  MIC: 2 µg/mL (≈ 8.8 µM)
Klebs. aerogenes 1082E*
  MIC: 1 µg/mL (≈ 4.4 µM)
E. coli 25922
  MIC: 1 µg/mL (≈ 4.4 µM)
Strept. faecalis 6
  MIC: 32 µg/mL (≈ 141 µM)
E. coli 1346
  MIC: 0.5 µg/mL (≈ 2.2 µM)
Staph. aureus 887*
  MIC: 1 µg/mL (≈ 4.4 µM)
Salmonella typh. BA
  MIC: 1 µg/mL (≈ 4.4 µM)
[5]
  MIC: 1 µg/mL (≈ 4.4 µM)

## CO[C@H]1C(S[C@H]2CCN(C(C)=N)C2)=C(C(=O)O)N2C(=O)[C@H]([C@@H](C)O)[C@@H]12 [Verbindung B, (4R,5S,-6S)-6-[(R)-1-Hydroxyäthyl]-3-[[(S)-1-(1-iminoäthyl) -3-pyrrolidinyl]thio]-4-methoxy-7-oxo-1-azabicyclo[3.2.0]-hept-2-en-2-carbonsäure]
Prot. mirabilis 29H
  MIC: 25 µg/mL (≈ 67.7 µM)
Pseudomonas aer. 1559E*
  MIC: 25 µg/mL (≈ 67.7 µM)
Prot. mirabilis 2117*
  MIC: 12.5 µg/mL (≈ 33.8 µM)
Staph. aureus 6538
  MIC: 0.1 µg/mL (≈ 0.271 µM)
Klebs. pneumoniae 418*
  MIC: 0.4 µg/mL (≈ 1.08 µM)
E. coli 1527 E*
  MIC: 0.4 µg/mL (≈ 1.08 µM)
[1]
  MIC: 0.8 µg/mL (≈ 2.17 µM)
Pseudomonas aer. BA*
  MIC: 25 µg/mL (≈ 67.7 µM)
Prot. vulgaris 1028*
  MIC: 12.5 µg/mL (≈ 33.8 µM)
[2]
  MIC: 0.4 µg/mL (≈ 1.08 µM)
[3]
  MIC: 3.1 µg/mL (≈ 8.39 µM)
[4]
  MIC: 3.1 µg/mL (≈ 8.39 µM)
Klebs. aerogenes 1082E*
  MIC: 0.8 µg/mL (≈ 2.17 µM)
E. coli 25922
  MIC: 0.8 µg/mL (≈ 2.17 µM)
Strept. faecalis 6
  MIC: 12.5 µg/mL (≈ 33.8 µM)
E. coli 1346
  MIC: 0.4 µg/mL (≈ 1.08 µM)
Staph. aureus 887*
  MIC: 0.2 µg/mL (≈ 0.541 µM)
Salmonella typh. BA
  MIC: 0.8 µg/mL (≈ 2.17 µM)
[5]
  MIC: 0.8 µg/mL (≈ 2.17 µM)

## CCO[C@H]1C(S[C@H]2CCNC2)=C(C(=O)O)N2C(=O)[C@H]([C@@H](C)O)[C@@H]12 [Verbindung C, (4R.5S,6S)-4--Aethoxy-6-[(R)-1-hydroxyäthyl]-3-[(S) -3-pyrrolidinyl-thio]-7-oxo-1-azabicyclo[3.2.0]hept-2-en-2-carbonsäure]
Prot. mirabilis 29H
  MIC: 32 µg/mL (≈ 93.5 µM)
Pseudomonas aer. 1559E*
  MIC: 64 µg/mL (≈ 187 µM)
Prot. mirabilis 2117*
  MIC: 16 µg/mL (≈ 46.7 µM)
Staph. aureus 6538
  MIC: 0.25 µg/mL (≈ 0.73 µM)
Klebs. pneumoniae 418*
  MIC: 2 µg/mL (≈ 5.84 µM)
E. coli 1527 E*
  MIC: 0.25 µg/mL (≈ 0.73 µM)
[1]
  MIC: 1 µg/mL (≈ 2.92 µM)
E. coli TEM 1*
  MIC: 0.5 µg/mL (≈ 1.46 µM)
Pseudomonas aer. BA*
  MIC: 32 µg/mL (≈ 93.5 µM)
Prot. vulgaris 1028*
  MIC: 32 µg/mL (≈ 93.5 µM)
[2]
  MIC: 1 µg/mL (≈ 2.92 µM)
[3]
  MIC: 4 µg/mL (≈ 11.7 µM)
[4]
  MIC: 8 µg/mL (≈ 23.4 µM)
Klebs. aerogenes 1082E*
  MIC: 2 µg/mL (≈ 5.84 µM)
E. coli 25922
  MIC: 0.5 µg/mL (≈ 1.46 µM)
Strept. faecalis 6
  MIC: 32 µg/mL (≈ 93.5 µM)
E. coli 1346
  MIC: 0.5 µg/mL (≈ 1.46 µM)
Staph. aureus 887*
  MIC: 0.5 µg/mL (≈ 1.46 µM)
Salmonella typh. BA
  MIC: 0.5 µg/mL (≈ 1.46 µM)
[5]
  MIC: 1 µg/mL (≈ 2.92 µM)

## CCO[C@H]1C(S[C@H]2CCN(C(C)=N)C2)=C(C(=O)O)N2C(=O)[C@H]([C@@H](C)O)[C@@H]12 [Verbindung D, (4R,5S,6S)-4-Aethoxy-6-[(R)-1--hydroxyäthyl]-3-[[(S)-1-(1-iminoäthyl)-3-pyrrolidinyl]-thio]-7-oxo-1-azabicyclo[3.2.0]hept-2-en-2-carbonsäure]
Prot. mirabilis 29H
  MIC: 32 µg/mL (≈ 83.4 µM)
Pseudomonas aer. 1559E*
  MIC: 64 µg/mL (≈ 167 µM)
Prot. mirabilis 2117*
  MIC: 16 µg/mL (≈ 41.7 µM)
Staph. aureus 6538
  MIC: 0.25 µg/mL (≈ 0.652 µM)
Klebs. pneumoniae 418*
  MIC: 2 µg/mL (≈ 5.22 µM)
E. coli 1527 E*
  MIC: 1 µg/mL (≈ 2.61 µM)
[1]
  MIC: 4 µg/mL (≈ 10.4 µM)
E. coli TEM 1*
  MIC: 0.5 µg/mL (≈ 1.3 µM)
Pseudomonas aer. BA*
  MIC: 64 µg/mL (≈ 167 µM)
Prot. vulgaris 1028*
  MIC: 16 µg/mL (≈ 41.7 µM)
[2]
  MIC: 2 µg/mL (≈ 5.22 µM)
[3]
  MIC: 8 µg/mL (≈ 20.9 µM)
[4]
  MIC: 8 µg/mL (≈ 20.9 µM)
Klebs. aerogenes 1082E*
  MIC: 2 µg/mL (≈ 5.22 µM)
E. coli 25922
  MIC: 2 µg/mL (≈ 5.22 µM)
Strept. faecalis 6
  MIC: 32 µg/mL (≈ 83.4 µM)
E. coli 1346
  MIC: 1 µg/mL (≈ 2.61 µM)
Staph. aureus 887*
  MIC: 0.5 µg/mL (≈ 1.3 µM)
Salmonella typh. BA
  MIC: 2 µg/mL (≈ 5.22 µM)
[5]
  MIC: 4 µg/mL (≈ 10.4 µM)
